Reference: patent publication US20230123497A1, “NOVEL ANTIBACTERIAL HYDROGELS” (NewSouth Innovations Pty Limited, priority 2020, published 2023)
“And” between values parts separate entries of the source, which are not always exact repeats. Equal values may be shown once.

Assays:
[1] = Hydrogel formation, vial inversion test (critical gel concentration); assay type: physicochemical; details: for Remarks (gel state): vial inversion test; for CGC: triggers GdL
Description: (§1) The simplest method to determine whether a suitable hydrogel has formed is to use the vial inversion test. Through visual inspection, a material can be categorised as a solution, viscous solution, partial gel, or solid-like gel. A stable hydrogel needs to be able to hold its weight and/or maintain its shape during this assessment.
(§2) The critical gel concentration (CGC) is defined as the minimum mass of a short peptide required to provide a self-supporting hydrogel per unit volume in the vial inversion test (measured as % w/v).
(§3) Pre-weighed samples of short peptide 4 were prepared in aluminium-covered glass vials and Milli-Q water and 2 equivalents of NaOH (1.0 M) were added to make up concentrations of 1% w/v. The resulting suspensions were vortexed for 5 minutes to provide clear yellow solutions with pH 11.
(§4) To create a high ionic strength environment, 1 equivalent of NaCl was added and the vial was left to stand without disturbance for 3 hours at room temperature. Meanwhile, as an attempt to form a hydrogel by lowering the pH, 2 equivalents of GdL were added to a high pH solution of 4 followed by gentle mixing. These vials were inverted and allowed to stand overnight to confirm the hydrogel formation.
(§5) The formation of hydrogel 4 via the solvent switch method was conducted by dissolving short peptide 4, in an aluminium covered glass vial, with either 50% methanol, ethanol, or dimethyl sulfoxide (DMSO). Respective amounts of Mili-Q water were added to make up concentrations of 1% w/v.
(§6) In addition, gelation time was defined as the time (hours) required for 1% w/v of short peptide 4 to form a hydrogel which can be turned upside down without collapsing.
(§7) Pre-weighed samples of short peptides 10a-17a, 18, and 19 were prepared in glass vials with 10 mm internal diameter, and Milli-Q water was added to make up concentrations of 1% w/v. The resulting suspensions of short peptides 13, 18, and 19 (as ammonium or guanidinium salts) were slowly warmed until all solid had completely dissolved. GdL (1.5 to 2.0 equivalents) was added to the suspension of short peptides 10a-17a, before heat was applied. To create a high ionic strength environment, 1-5 equivalents of NaCl was added to the viscous solution of 10a-17a to make the total volume up to 1 mL, followed by gentle mixing, and the vial was left to stand without disturbance for 3 hours at room temperature. Subsequently, these vials were inverted and allowed to stand overnight to confirm hydrogel formation.

[2] = Frequency sweep test (FST), rheometer; assay type: physicochemical; details: for G′ (modulus storage) / G″ (modulus loss): FST fixed strain 0.1%
Procedure: The mechanical properties of anthranilamide-based cationic hydrogels were assessed using an Anton Paar MCR 302 rheometer with a 25 mm stainless parallel plate configuration.
(§8) Initially, 1 mL of hydrogels were prepared from short peptides 11-13 and 15-19 in glass vials at concentration of 1% w/v. These vials were warmed using a heat gun to transform the hydrogel to the solution phase. Subsequently, 560 μL of the resulting solutions were cast onto the rheometer plate. The other plate was lowered to the measuring position ([…]) and the hydrogel was allowed to stand for 3 hours for the gel to form. The FST was conducted at fixed strain of 0.1% and frequency ranging from 10 Hz to 0.01 Hz. Meanwhile, the strain sweep test (SST) was performed at a frequency of 1 Hz using 0.1% strain to 100% strain. The rheology data were shown as the average of three repeats for each data point.
(§9) The mechanical properties of hydrogels 4 (formed via addition of NaCl or GdL) before and after blue light irradiation were also assessed using an Anton Paar MCR 302 rheometer with a 25 mm stainless parallel plate configuration. Prior to the hydrogel formation, 560 μL of solution phase of short peptide 4 at 1% w/v were transferred onto a rheometer plate. Meanwhile, hydrogel 4, which had been exposed to blue light, was warmed using a heat gun, to provide its solution phase. Subsequently, 560 μL of this solution phase was cast onto the rheometer plate. The other plate was lowered to the measuring position ([…]) and the hydrogel was allowed to stand for 3 hours for the gel to form. The frequency sweep test (FST) was conducted at fixed strain of 0.1% and frequency ranging from 10 Hz to 0.01 Hz. Meanwhile, the SST was performed at a frequency of 1 Hz using 0.1% strain to 100% strain. In addition, the temperature sweep test was conducted to obtain transition glass (Tg) using fixed frequency of 1 Hz and fixed strain of 0.1% with temperature ramping from 25° C. to 90° C. The rheology data were shown as the average of three repeats for each data point.
In the FST, samples were measured over a range of oscillation frequencies (0.1-10 rad/s) at fixed strain, temperature, and oscillation amplitude. Higher frequencies simulate fast motion on a short time-scale, while low frequencies simulate slow motion on a long time-scale, or rest. All of the hydrogels made from the anthranilamide-based short cationic peptides, which passed the vial inversion test, were subjected to the FST using a rheometer to precisely assess their mechanical properties.

[3] = Strain sweep test (SST), linear viscoelastic region; assay type: physicochemical; details: hydrogels at 1% w/v, SST at 1 Hz, 0.1% to 100% strain
Procedure: as §8, §9
To observe the structural decay in anthranilamide-based cationic hydrogels, the SST was performed by imposing a non-linear strain. SST provides information about the viscoelastic properties of a hydrogel through determination of its linear viscoelastic region (LVER). […] Here, the LVER reported for each hydrogel represents the deviation of storage modulus (G′) from linearity, known as yield point (γy). Yield points have been reported to reflect a point where the rigidity of a hydrogel starts to weaken.

[4] = Atomic force microscopy (AFM) of fibers; assay type: physicochemical; details: for fiber bundle diameter: hydrogel after addition of salt, 4× below CGC; for fiber diameter: hydrogel, 4× below CGC (17 imaged at 0.10% w/v)
Procedure: Hydrogels of NO-releasing short peptide 4 (1 drop), at high pH, low pH, and after irradiation, were cast onto a mica substrate. Hydrogels of cationic short peptides 11-13 and 15-19 were prepared at their CGC, 2× below, and 4× below CGC in glass vials. Prior to gelation, one drop of the cationic short peptide solutions was cast onto a mica substrate. Using a glass slide, each droplet was carefully spread and was left to dry overnight before imaging. Imaging was performed using a Bruker Multimode 8 Atomic Force Microscope in Scanasyst Air (PeakForce Tappings) mode, which is based on tapping mode AFM. To prevent damage of soft samples, the imaging parameters were constantly optimized through the force curves that were collected. Bruker Scanasyst-Air probes were used, with a spring constant of 0.4-0.8 N·m^−1 and a tip radius of 2 nm.
To gain some insight on the mechanism of antibacterial action, the released solutions from hydrogel made of primary ammonium 11 were directly cast onto a mica substrate. […] After gently spreading using a glass slide and left to dry overnight, these samples were imaged using a similar manner as describe above.

S. aureus 38 = assay: Antibacterial activity of cationic hydrogels, viable count method; assay type: cell-based, Staphylococcus aureus; details: hydrogel at 1% w/v in contact with S. aureus, compared to control
Procedure: The antibacterial activity of the anthranilamide-based cationic hydrogels 11-13 and 15-19 was investigated in vitro against S. aureus. The antibacterial activity of anthranilamide-based cationic hydrogel 11 was also investigated in vitro against E. coli.
First, a single colony of S. aureus 38 or E. coli K12 was grown in Luria-Bertani (LB) broth medium at 37° C. overnight. The resulting bacteria were harvested, via centrifugation, to obtain a bacteria pellet which was re-suspended in the same volume of LB medium, twice. The optical density (OD) value of the resulting culture was adjusted to 0.1 at 600 nm in LB (10^8 cfu·mL^−1). This bacteria solution was then further adjusted to 3×10^4 cfu mL^−1. (CFU or cfu=colony-forming unit). Bacteria solutions (1 mL), which contain either 10^8 CFUs/mL or 3×10^4 CFUs/mL, were gently added to hydrogel 11 at 1% w/v with total volume of 1 mL. Anthranilamide-based cationic hydrogels 11-13 and 15-19 (1 mL) were prepared at 1% w/v in glass vials as described above. On top of these pre-formed hydrogels, 1 mL of bacteria solution was carefully cast. […] As a negative control, a bacterial solution in the absence of hydrogel was used. After being incubated at 37° C. for 18 hours, 100 μL of bacteria solution in each vial was taken and subjected to serial dilution using phosphate buffer solution (PBS). 20 μL of each dilution were carefully transferred into nutrient agar plates and incubated for another 18 hours. The following day, bacterial growth inhibition was quantified using the viable count method. The experiment was performed twice in triplicate and multiple sample comparison was performed using one-way ANOVA at p<0.05.

[5] = Hydrogel formation, vial inversion test (critical gel concentration); assay type: physicochemical; set-up: key: VS: viscous solution; CG: clear gel; details: vial inversion test
Description: as §1, §2, §3, §4, §5, §6, §7

[6] = as above; assay type: physicochemical; set-up: key: OG: opaque gel; P: precipitate; details: cationic peptides 10-14; vial inversion test
Description: as §1, §2, §3, §4, §5, §6, §7

[7] = as above; assay type: physicochemical; set-up: key: CG: clear gel; PG: partial gel; OG: opagque gel; details: cationic peptides 15-19
Description: as §1, §2, §3
as §4, with “formation. […]” for “formation.”

[8] = hydrogels of cationic peptides 10-14
[9] = cationic peptides 10-14, heat and NaCl (13: heat and NaCl)
[10] = cationic peptides 15-19, heat and NaCl (18, 19: heat and NaCl)
[11] = hydrogels of cationic peptides 15-19

SMILES	Remarks (gel state) ([1]; cationic peptides 10-14)	pH [1, 8]	CGC [1, 9] [% w/v]	G′/G″ ratio ([2]; hydrogels 11-13 at 1% w/v)	G′ (modulus storage) ([2]; hydrogels 11-13 at 1% w/v) [kPa]	G″ (modulus loss) ([2]; hydrogels 11-13 at 1% w/v) [kPa]	LVER (linear viscoelastic region) [3]	fiber bundle diameter [4] [nm]	Remarks (gel state) ([5]; cationic peptides 10-14)	Remarks (gel state) [6]	CGC [1, 10] [% W/V]	pH [1, 11]	G′/G″ ratio ([2]; hydrogels 15-19 at 1% w/v)	G′ (modulus storage) ([2]; hydrogels 15-19 at 1% w/v) [kPa]	G″ (modulus loss) ([2]; hydrogels 15-19 at 1% w/v) [kPa]	Remarks (gel state) [7]	Remarks (gel state) ([1]; cationic peptides 15-19)	fiber diameter [4] [nm]	Remarks (gel state) ([5]; cationic peptides 15-19)	bacterial reduction (S. aureus 38) [Log10]
CN(C)CCCNC(=O)[C@H](Cc1ccccc1)NC(=O)c1ccccc1NC(=O)c1ccc2ccccc2c1 [Compound 12]		5.5	0.3	15.7	8.63	0.55	0.98 ± 0.02%	139±10	CG											5.1
CN(C)CCCNC(=O)[C@H](Cc1ccccc1)NC(=O)c1ccc(F)cc1NC(=O)c1ccc2ccccc2c1 [Compound 15]							2.01% and 2.01 ± 0.06%	115±10			0.	5.5	20	1.20	0.06	OG				3.1
CN(C)CCCNC(=O)[C@H](Cc1ccccc1)NC(=O)c1ccc(Br)cc1NC(=O)c1ccc2ccccc2c1 [Compound 17]							0.16% and 0.16 ± 0.01%					5.5	4.0	0.08	0.02		OG → PG	101±6		
CN(C)CCCNC(=O)[C@H](Cc1ccccc1)NC(=O)c1ccccc1NC(=O)c1ccc2ccccc2c1.Cl [Compound 19, (S)-3-(2-(2-(2-naphthamido)benzamido)-3-phenylpropanamido)-N,N-dimethylpropan-1-aminium Chloride]							1.00 ± 0.01%				0.3	5	10.1	1.61	0.16			87±6	CG	3.0

More lines, main results first:

Remarks (gel state) ([1]; cationic peptides 10-14)	pH [1, 8]	CGC [1, 9] [% w/v]	G′/G″ ratio ([2]; hydrogels 11-13 at 1% w/v)	G′ (modulus storage) ([2]; hydrogels 11-13 at 1% w/v) [kPa]	G″ (modulus loss) ([2]; hydrogels 11-13 at 1% w/v) [kPa]	LVER (linear viscoelastic region) [3]	fiber bundle diameter [4] [nm]	Remarks (gel state) ([5]; cationic peptides 10-14)	Remarks (gel state) [6]	CGC [1, 10] [% W/V]	pH [1, 11]	G′/G″ ratio ([2]; hydrogels 15-19 at 1% w/v)	G′ (modulus storage) ([2]; hydrogels 15-19 at 1% w/v) [kPa]	G″ (modulus loss) ([2]; hydrogels 15-19 at 1% w/v) [kPa]	Remarks (gel state) [7]	Remarks (gel state) ([1]; cationic peptides 15-19)	fiber diameter [4] [nm]	Remarks (gel state) ([5]; cationic peptides 15-19)	SMILES	bacterial reduction (S. aureus 38) [Log10]
CG → PG	5.5																		NCCNC(=O)[C@H](Cc1ccccc1)NC(=O)c1ccccc1NC(=O)c1ccc2ccccc2c1 [Compound 10]	
	6	0.2	10.9	2.28	0.21	1.10 ± 0.04%	148±16		OG										C[N+](C)(C)CCCNC(=O)[C@H](Cc1ccccc1)NC(=O)c1ccccc1NC(=O)c1ccc2ccccc2c1.[I-] [Compound 13, (S)-3-(2-(2-(2-naphthamido)benzamido)-3-phenylpropanamido)-N,N,N-trimethylpropan-1-aminium iodide]	4.1
	6																		N=C(N)NCCCNC(=O)[C@H](Cc1ccccc1)NC(=O)c1ccccc1NC(=O)c1ccc2ccccc2c1 [Compound 14]	
						1.66% and 1.66 ± 0.10%	99±6			0.2	5.5	10.6	0.53	0.05	OG				CN(C)CCCNC(=O)[C@H](Cc1ccccc1)NC(=O)c1ccc(Cl)cc1NC(=O)c1ccc2ccccc2c1 [Compound 16]	5.0
						0.98 ± 0.02%				0.3	4	16.5	5.12	0.31			104±4	CG	CN(C)CCCNC(=O)[C@H](Cc1ccccc1)NC(=O)c1ccccc1NC(=O)c1ccc2ccccc2c1 [Compound 18, (S)-3-(2-(2-(2-naphthamido)benzamido)-3-phenylpropanamido)-N,N-dimethylpropan-1-aminium Ttrifluoroacetate]	4.9
